Data reported in patent publication US5612188A, “Automated, multicompartmental cell culture system” (Cornell Research Foundation, Inc., priority 1994, dated 1997).
Where two headings read alike, the source gives them in different places.

Key:
lung GSH = conditions: after BSO, before 200 mg/kg naphthalene; cited from earlier work
liver GSH [1] = conditions: cited from earlier work
[2] = Biotransformation of naphthalene by mouse lung microsomes; assay type: in vitro ADME; conditions: mouse, lung microsomes
Protocol: (§1) Biotransformation rates of naphthalene at initial concentrations of 0.05, 0.1 and 1.0 mM by lung and liver microsomes have been determined (O'Brien, et al. (1985), supra, Buckpitt, A. R., Bahnson, L. S., and Franklin, R. B., "Hepatic and Pulmonary Microsomal Metabolism of Naphthalene to Glutathione Adducts: Factors Affecting the Relative Rates of Conjugate Formation", J. Pharmacol. Exp. Ther. 231: 291-300 (1984), which is hereby incorporated by reference), and Buckpitt, A. R., Castagnoli, Jr., N., Nelson, et al., "Stereoselectivity of Naphthalene Epoxidation by Mouse, Rat, and Hamster Pulmonary, Hepatic and Renal Microsomal Enzymes", Drug Metab. Dispos. 15: 491-498 (1987), which is hereby incorporated by reference). Assuming Michaelis-Menten kinetics, fitting s/v vs s was used to provide Vmax and Km values. Since mouse liver produces the 1R,2S- and 1S,2R-naphthalene oxide enantiomers in equal amounts at all substrate concentrations (Buckpitt, et al., 1987, supra), the calculated Vmax was divided by two to give the production rates for each enantiomer.
(§2) For the lung, the biotransformation of naphthalene was modeled as the sum of two separate reactions, each producing a different enantiomer, with the Vmax's summing to the value calculated as described above.

mouse lung microsomes [3] = assay: as above; assay type: in vitro ADME
Protocol: as §1, §2

[4] = Biotransformation of naphthalene by mouse liver microsomes; assay type: in vitro ADME; conditions: mouse, liver microsomes; read-out: Km, N to 1R, 2S NO
Protocol: as §1

mouse liver microsomes [5] = assay: as above; assay type: in vitro ADME; conditions: Mouse, Liver
Protocol: as §1

[6] = Biotransformation of naphthalene by rat lung microsomes; assay type: in vitro ADME
From the text: (§3) Determination of Vmax's and Km's for naphthalene oxide production and Vmax's for GSH conjugates and dihydrodiol production in rat microsomes were done in the same way as for the mouse. Sources of data were Buckpitt, et al, 1987, supra, Hesse, S. and Mezger, M., "Involvement of Phenolic Metabolites in the Irreversible Protein-binding of Aromatic Hydrocarbons: Reactive Metabolites of [^14 C]-naphthalene and [^14 C] 1-naphthol Formed by Rat Liver Microsomas", Mol. Pharmacol. 16: 667-675 (1979) which is hereby incorporated by reference, O'Brien et al., 1985, supra, van Bladeren et al., 1985, supra, and Yost, G. S., Buckpitt, A. R., Roth, R. A., and McLemore, T. L., "Mechanisms of Lung Injury by Systematically Administered Chemicals", Toxicol. Appl. Pharmacol. 101: 179-195 (1989), which is hereby incorporated by reference.

[7] = Biotransformation of naphthalene by rat liver microsomes; assay type: in vitro ADME
From the text: as §3

CD-1 mice = conditions: po, cited from earlier work
Sherman rats = conditions: po, cited from earlier work
Clara cells of the lung = conditions: similar binding levels in lung and liver; cited from earlier work
mouse lung microsomes [8] = conditions: cited from earlier work
mouse liver microsomes [9] = conditions: cited from earlier work
mouse liver microsomes [10] = conditions: Observed; 1 mM naphthalene, 5 mM GSH; cited from earlier work
liver GSH [11] = conditions: 200 mg/kg oral, rat, 6 1/2 hours; observed; cited from earlier work
mouse liver = conditions: 200 mg/kg naphthalene, cited from earlier work
mouse lung = conditions: cited from earlier work; for Covalent binding in the lung: Male Swiss-Webster mouse, ip
[12] = Lung, Experiment, 0.1 mM naphthalene, 6 minutes
[13] = [N] 1.0 mM, Buckpitt et al., 1987
[14] = Liver, Experiment, 0.1 mM naphthalene, 6 minutes

In the case of CCCCS(=N)(=O)CCC(N)C(=O)O (stereo not shown) [BSO, buthionine sulfoximine], the “GSH level in lung, percent of control” value (lung GSH) is listed as 86%, the “GSH level in liver, percent of control” value (liver GSH [1]; after BSO, before 200 mg/kg naphthalene) is listed as 35% and the “hepatic and pulmonary GSH” value (liver GSH [1]; mice pretreated with BSO) is listed as “hepatic and pulmonary GSH are depleted”. For the same compound, the “GSH depletion, liver versus lung” value (liver GSH [1]; treatment of mice with BSO) was “depletes GSH in the liver more than in the lung”.

In the case of c1ccc2ccccc2c1 [naphthalene], the Km ([2]; read-out: Km, N to 1R, 2S NO) is reported as 100 µM, the Km ([2]; read-out: Km, N to 1S, 2R NO) is reported as 400 µM and the “Vmax, N to 1R, 2S NO” value (mouse lung microsomes [3]) is reported as 9.0 nmol/mg/min. For the same compound, the “Vmax, N to 1S, 2R NO” value (mouse lung microsomes [3]) was 1.1 nmol/mg/min, the Km [4] was 307 µM and the “Vmax, N to 1R, 2S NO” value (mouse liver microsomes [5]) was 6.95 nmol/mg/min. For the same compound, the “Vmax, N to 1S, 2R NO” value (mouse liver microsomes [5]) was 6.95 nmol/mg/min, the Km ([6]; read-out: Km, N to 1R, 2S NO) was 400 µM and the Km ([6]; read-out: Km, N to 1S, 2R NO) was 1540 µM. The Km ([7]; read-out: Km, N to 1R, 2S NO) was 400 µM, the Km ([7]; read-out: Km, N to 1S, 2R NO) was 800 µM and the LD50 (CD-1 mice; female CD-1 mice) was 710 mg/kg. The LD50 (CD-1 mice; male CD-1 mice) was 533 mg/kg, the LD50 (Sherman rats; female Sherman rats) was 2400 mg/kg and the LD50 (Sherman rats; male Sherman rats) was 2200 mg/kg. For the same compound, the site of toxicity (Clara cells of the lung) was “toxicity is limited to the Clara cells of the lung”, the Covalently bound (mouse lung microsomes [8]; [12]) was 7.4 nmol/mg and the Diol formed (mouse lung microsomes [8]; [12]) was 4.2 nmol/mg. The NOH formed (mouse lung microsomes [8]; [12]) was 21.2 nmol/mg, the “observed ratio of conjugates of 1R, 2S and 1S, 2R naphthalene oxide” value (mouse lung microsomes [8]; [N] 0.015 mM, Buckpitt and Franklin, 1989) was 30 and the observed v (mouse lung microsomes [8]; [N] 0.05 mM, O'Brien et al., 1985) was 1.33 nanomoles of product/mg micros. For the same compound, the observed v (mouse lung microsomes [8]; [N] 0.10 mM, Buckpitt et al., 1984) was 6.01 nanomoles of product/mg micros, the “observed ratio of conjugates of 1R, 2S and 1S, 2R naphthalene oxide” value (mouse lung microsomes [8]; [13]) was 10 and the observed v (mouse lung microsomes [8]; [13]) was 8.3 nanomoles of product/mg micros. For the same compound, the Covalently bound (mouse liver microsomes [9]; [14]) was 5.8 nmol/mg, the Diol formed (mouse liver microsomes [9]; [14]) was 11.9 nmol/mg and the NOH formed (mouse liver microsomes [9]; [14]) was 3.5 nmol/mg. For the same compound, the “1R,2S- and 1S,2R-naphthalene oxide enantiomers produced” value (mouse liver microsomes [9]; mouse liver, all substrate concentrations) was “equal amounts”, the “1,2 dihydrodiol formation rate” value (mouse liver microsomes [10]) was 2.43 nmol/mg/min and the “Conjugate 2 formation rate” value (mouse liver microsomes [10]) was 3.64 nmol/mg/min. For the same compound, the “Conjugates 1 and 3 formation rate” value (mouse liver microsomes [10]) was 3.56 nmol/mg/min, the “liver GSH, percent of the initial concentration” value (liver GSH [11]) was 17% and the “observed binding level in liver” value (mouse liver; with BSO pretreatment) was 1069 pmol/mg. For the same compound, the “observed binding level in liver” value (mouse liver; without BSO) was 255 pmol/mg, the “experimental covalent binding in lung” value (mouse lung; 200 mg/kg naphthalene, with BSO pretreatment) was 411 pmol/mg and the “experimental covalent binding in lung” value (mouse lung; 200 mg/kg naphthalene, without BSO) was 137 pmol/mg. The “experimental increase in lung covalent binding by BSO” value (mouse lung; 200 mg/kg naphthalene) was 3.0 factor, the “Covalent binding in the lung” value (mouse lung; 300 mg/kg) was 675 pmol/mg and the “Covalent binding in the lung” value (mouse lung; 400 mg/kg) was 912 pmol/mg.
